Marks after values point to notes of the source that are not given here.
Tests used:
[1] = test system: extracellular Aβ1-40 accumulation in SH-SY5Y cells; test: Effect on extracellular Aβ1-40 accumulation (Human Aβ1-40 immunoassay of the medium); format: cell-based; conditions: 50 μg/ml, 24 hours, mean±SD
Description: (§1) Wild-type human neuroblastoma cells (SH-SY5Y) were cultured in Eagle's Minimum essential Medium (EMEM)/Ham's F12 medium (1:1 mixture) (containing 10% FBS, 10 units/ml penicillin, 10 μg/ml Streptomycin). Wild-type mouse neuroblastoma Neuro-2a cells were cultured in minimum essential medium (MEM) (containing 10% FBS, 10 units/ml penicillin, 10 μg/ml Streptomycin).
The medium of the wild-type human neuroblastoma SH-SY5Y cells in Example 1 were switched into chemical defined medium (EMEM/F12 medium (Cat. No. 12500-062), Hepes 5 mM, Glucose 0.6%, NaHCO3 3 mM, Glutamine 2.5 mM, Insulin 25 μg/ml, Transferin 100 μg/ml, Progestrone 20 nM, Putrescine 60 μM, Sodium selenite 30 nM, Heparin 2 μg/ml). Each well contained 1×10^5 SH-SY5Y cells in 300 μl of culture medium. Thirty minutes later, each well was treated with the test samples A-D given in Table 1 respectively at a concentration of 50 μg/ml for 24 hours. After that, the level of Aβ1-40 in the medium of each well was analyzed by Human Aβ1-40 immunoassay kits (Catalog #KHB3482 Invitrogen).
Human neuroblastoma SH-SY5Y cells cause extracellular accumulation of Aβ. […] The results were shown in mean±standard deviation (SD) form. Significant difference between the Vehicle control group and the test sample-treated groups were indicated by *., P<0.05, *.*, P<0.01, and. ***., P<0.001.

[2] = molecular target: Human Aβ1-42 (Homo sapiens, UniProt P05067); test: Aβ1-42 oligomerization (thioflavin T fluorescence); format: biochemical; conditions: 50 μg/ml, 24 hours
Sequence of Human Aβ1-42 (P05067 672-713 limits assumed): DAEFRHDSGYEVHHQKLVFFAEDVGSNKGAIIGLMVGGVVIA
Description: Dried Human Aβ1-42 was taken out from the refrigerator and equilibrated to room temperature. Aβ1-42 was dissolved in 1,1,1,3,3,3-Hexa-fluro-2-propanol (HFIP) to a concentration of 1 mM, and was then placed at room temperature for one hour. The Aβ1-42/HFIP solution was aliquoted by Hamilton syringe, and was then dried under a stream of nitrogen gas, followed by storing at a temperature of −20[…]. Aβ1-42 treated with HFIP was dissolved in PBS, and was vibration-incubated with treatment of each test sample at a concentration of 50 μg/ml and at 4[…] for 24 hours to prepare Aβ1-42 oligomers. The level of Aβ1-42 oligomerization was analyzed by thioflavin T fluorescence (Ex=450 nm, Em=482 nm).

[3] = test system: SD rats infused intracerebroventricularly with Aβ1-42; test: Passive avoidance response test in Aβ1-42-infused rats; format: in vivo, rat; conditions: oral
Description: (§2) The rats were anesthetized for implantation of an infusion cannula into the left cerebral ventricle thereof. After sewing up the incisions, the rats were returned to their cages. FIG. 7 illustrates the experimental schedule for animal studies. The exploration behavior tests were carried out on day 7, the passive avoidance learning tests were carried out on day 8 and 9, the water maze tests were carried on day 10 to 13, and the probe tests were carried out on day 14, after the start of Aβ1-42 infusion. […] The test samples were administered orally to the rats, 1 hour before the tests (i.e., the exploration behavior tests, the passive avoidance learning tests, and the water maze tests) throughout the experimental period. […] All the test samples were prepared freshly with deionized distilled water (ddH2O) every day, and were administered orally by stomach tube.
(§3) Significant difference between the Aβ1-42 control group and the other experimental groups were indicated by *., P<0.05, *.*, P<0.01, and. ***., P<0.001.

[4] = test system: SD rats infused intracerebroventricularly with Aβ1-42; test: Dopamine (DA) and metabolites DOPAC and HVA levels in brain cortex and hippocampus of rats; format: in vivo, rat; conditions: for DA level / DOPAC level / HVA level: mean±SD
Description: as §2, §3
After the water maze performance tests, all rats were decapitated and their brains were rapidly removed from the skull. According to Glowinski and Iversen, the brain cortex and hippocampus were separated, and then each cortex and hippocampus were weighed and were homogenized by addition of 50 mM Na-phosphate buffer (pH 7.8) for analyzing the concentrations of neurotransmitters and the levels of enzymes.

[5] = test system: SD rats infused intracerebroventricularly with Aβ1-42; test: Exploration behavior test in Aβ1-42-infused rats; format: in vivo, rat; conditions: oral
Description: as §2, §3

[6] = test system: Aβ-degrading enzymes released by Neuro-2a cells; test: Effect on extracellular Aβ1-40 degradation in Neuro-2a conditioned medium; format: biochemical, mouse; conditions: Neuro-2a medium, 50 μg/ml, 10 ng synthetic Aβ1-40, 24 hours
Description: as §1
Mouse neuroblastoma Neuro-2a cells will release Aβ-degrading enzymes in the chemical defined medium, but will not produce detectable amount of Aβ in the medium. The Neuro 2a cells were incubated in the medium for 24 hours, and then the medium were drawn out without cells. The medium were individually treated with the test samples A-D at a concentration of 50 μg/ml and 10 ng synthetic Aβ1-40 for 24 hours, and then the effects of each test sample on promoting the enzymes in the medium were examined. The remaining Aβ1-40 amount of each well was analyzed by Human Aβ1-40 Immunoassay kits (Catalog #KHB3482 Invitrogen), expressing as percentage, as compared with the Vehicle control group.

[7] = test system: Aβ1-42 plaques in rat brain; test: Immunohistochemical staining for Aβ1-42 in the hippocampus section of rat's brain; format: in vivo; conditions: oral
From the text: In the following Examples 7 to 11 illustrated below, male Sprague-Dawley (SD) rats, weighed 250-300 gm, were obtained from BioLASCO Taiwan Co. Ltd. The SD rats were infused intracerebroventricularly with Aβ1-42 to cause neuronal damage, affecting their memory and learning ability, and leading to form senile plaque-like aggregates in the rat's brain, being used as an animal model of Alzheimer's disease. Alzheimer's disease animal model induced by Aβ can be referred to, for example, Nabeshima et al. (Neuroscience Letters (1994) 170: 63-66)(British Journal of Pharmacology (1999) 126: 235-244).
The rats were anesthetized for implantation of an infusion cannula into the left cerebral ventricle thereof. After sewing up the incisions, the rats were returned to their cages. FIG. 7 illustrates the experimental schedule for animal studies. The exploration behavior tests were carried out on day 7, the passive avoidance learning tests were carried out on day 8 and 9, the water maze tests were carried on day 10 to 13, and the probe tests were carried out on day 14, after the start of Aβ1-42 infusion. The Sham group was treated with TFA solution (64.9% sterile ddH2O, 35% acetonitrile, 0.1% trifluoroacetic acid), and the other experimental groups were treated with 0.5 μl of Aβ1-42 dissolved in TFA solution per hour, corresponding to 300 pmol/12 μl of Aβ1-42 (Tocris 1428; MW: 4514.08) per day. The test samples were administered orally to the rats, 1 hour before the tests (i.e., the exploration behavior tests, the passive avoidance learning tests, and the water maze tests) throughout the experimental period. […] All the test samples were prepared freshly with deionized distilled water (ddH2O) every day, and were administered orally by stomach tube.
All rats were sacrificed and their brains were removed, cut into slices and stained. Neurotransmitters were also tested.
After the water maze performance tests, all rats were decapitated and their brains were rapidly removed from the skull, and then immunohistochemical staining for Aβ1-42 in the hippocampus section of their brains. […]

[8] = test system: acetylcholinesterase; test: Acetylcholinesterase activities in brain cortex and hippocampus of rats; format: in vivo, rat; conditions: oral; D 2.5 and 5 mg/kg, Aricept 0.75 mg/kg
Description: as §2, §3
(§4) After the water maze performance tests, all rats were decapitated and their brains were rapidly removed from the skull. […]

[9] = test system: SD rats infused intracerebroventricularly with Aβ1-42; test: Acetylcholine and choline levels in brain cortex and hippocampus of rats; format: in vivo, rat; conditions: oral
Description: as §2, §3, §4

[10] = test system: SD rats infused intracerebroventricularly with Aβ1-42; test: Water maze spatial performance and probe tests in Aβ1-42-infused rats; format: in vivo, rat; conditions: oral
Description: as §2, §3

[11] = D 2.5 and 5 mg/kg, Aricept 0.75 mg/kg
[12] = brain hippocampus, oral 2.5 mg/kg
[13] = brain hippocampus, oral 5 mg/kg

C[C@@H]1O[C@@H](O[C@@H]2[C@@H](O)[C@H](OCCc3ccc(O)c(O)c3)O[C@H](CO)[C@H]2OC(=O)/C=C/c2ccc(O)c(O)c2)[C@H](O)[C@H](O)[C@H]1O [Test sample C, Acteoside, reference compound]
reduction of the level of Aβ1-40 in the medium in comparison with the Vehicle control group [1]: about 20%
activity on inhibiting Aβ1-42 oligomerization (in words) [2]: possess activities on inhibiting Aβ1-42 oligomerization

C[C@@H]1O[C@@H](O[C@@H]2[C@@H](O)[C@H](OCCc3ccc(O)c(O)c3)O[C@H](CO[C@@H]3O[C@H](CO)[C@@H](O)[C@H](O)[C@H]3O)[C@H]2OC(=O)/C=C/c2ccc(O)c(O)c2)[C@H](O)[C@H](O)[C@H]1O [Test sample B, Echinacoside, reference compound]
activity on inhibiting Aβ1-42 oligomerization (in words) [2]: possess activities on inhibiting Aβ1-42 oligomerization

Isoacteoside [Test sample D]
passive avoidance response, compared with Aricept 0.75 mg/kg ([3]; 2.5 mg/kg): shows equivalent effect with Aricept 0.75 mg/kg
passive avoidance response, compared with Aricept 0.75 mg/kg ([3]; 5 mg/kg): shows better effects than Aricept 0.75 mg/kg
passive avoidance learning impairment (step-through latency) [3, 11]: reverse the passive avoidance learning impairment
DA level ([4]; brain cortex, oral 2.5 mg/kg): 2.67 ± 0.43
DOPAC level ([4]; brain cortex, oral 2.5 mg/kg): 12.53 ± 3.33
HVA level ([4]; brain cortex, oral 2.5 mg/kg): 2.92 ± 0.58
DA level ([4]; brain cortex, oral 5 mg/kg): 3.84 ± 0.47*
DOPAC level ([4]; brain cortex, oral 5 mg/kg): 13.80 ± 3.03
HVA level ([4]; brain cortex, oral 5 mg/kg): 2.74 ± 0.69
DA level [4, 12]: 5.41 ± 1.30***
DOPAC level [4, 12]: 4.98 ± 1.15
HVA level [4, 12]: 3.68 ± 0.46
DA level [4, 13]: 4.07 ± 0.59***
DOPAC level [4, 13]: 4.13 ± 0.45
HVA level [4, 13]: 3.29 ± 0.25
DA levels in the cortex and hippocampus (in words) ([4]; oral, D 2.5 and 5 mg/kg, Aricept 0.75 mg/kg): reverse the decrease in DA levels
exploratory activities, compared with Aricept 0.75 mg/kg ([5]; 5 mg/kg): shows better effects than Aricept 0.75 mg/kg
exploratory activities of the rats ([5]; D 2.5 and 5 mg/kg, Aricept 0.75 mg/kg, day 7): effective in improving the exploratory activities of the rats
reduction of the level of Aβ1-40 in the medium in comparison with the Vehicle control group [1]: about 47.44±16.62%
Aβ1-40 degradation (remaining Aβ1-40 amount) [6]: does not accelerate Aβ degradation
plaques found in the brain of the rat ([7]; 2.5 mg/kg): few plaques
plaques found in the brain of the rat ([7]; 5 mg/kg): almost no plaques
plaques in the brain, compared with Aricept-treated rat ([7]; D 2.5 and 5 mg/kg vs Aricept 0.75 mg/kg): less than that in the brain of the rat treated with Aricept
acetylcholinesterase activities in the brain cortex and hippocampus [8]: reverse the increase in acetylcholinesterase activities
activity on inhibiting Aβ1-42 oligomerization (in words) [2]: possess activities on inhibiting Aβ1-42 oligomerization
inhibition of Aβ1-42 oligomerization [2]: 98.93±1.70%
acetylcholine levels in the brain cortex and hippocampus ([9]; 5 mg/kg): particularly potent
acetylcholine levels in the brain cortex and hippocampus [9, 11]: reverse the decrease in acetylcholine levels
water maze spatial performance and probe test, compared with Aricept 0.75 mg/kg ([10]; 5 mg/kg): shows better effects than Aricept 0.75 mg/kg
deficits of the water maze spatial performance and the probe test [10, 11]: can be improved

Reference: patent US20120009131A1, “METHOD FOR PREVENTING OR TREATING AMYLOID BETA PEPTIDE-ASSOCIATED DISEASES OR CONDITIONS, AND METHOD FOR INHIBITING FORMATION, ACCUMULATION OR AGGREGATION OF AMYLOID BETA PEPTIDES” (Sinphar Tian-Li Pharmaceutical Co., Ltd. (Hangzhou), priority 2010, published 2012)
